From PMC12040169 (PLOS Biology, 2025) come the findings set out here.

A short description of the series: in vitro. The following applies: human, hela cells, % viability.
With `CCC(COC)NS(=O)(=O)c1ccc(C(C)C)cc1` (stereo not shown) [CBK044587], the viability at 28.5 h, 10 µM is 108%.
As for `Cc1cnc(CNS(=O)(=O)c2ccc(C(C)C)cc2)cn1` [CBK044615], the figure is 118%; as for `O=S(=O)(Nc1cccc(Cl)c1)c1ccc(Cl)c(Cl)c1` [CBK044636], 79.3%; as for `Cc1cc(NS(=O)(=O)c2ccc(C(C)C)cc2)n[nH]1` [CBK044646], 106%.
As to `CCOCCNS(=O)(=O)c1ccc(C(C)(C)CC)cc1` [CBK044655], the viability at 28.5 h, 10 µM is 98.2%.
On to `CC(C)c1ccc(S(=O)(=O)NCc2csc3ccccc23)cc1` [CBK044662], for which the viability at 28.5 h, 10 µM came to 96.6%.
Turning to `Cc1cc(Cl)ccc1CNS(=O)(=O)c1cccs1` [CBK044714], the viability at 28.5 h, 10 µM is 97%.
`CC(C)c1ccc(S(=O)(=O)NCc2ccc(F)c(F)c2F)cc1` [CBK044717]: the viability at 28.5 h, 10 µM came to 102%.
For the compound `CCCCCNC(=O)N1CCN(CC(=O)OCC)CC1` [CBK044786], the viability at 28.5 h, 10 µM came out at 96.6%.
On to `CCc1cc(Br)ccc1S(=O)(=O)NCCCC(=O)OC` [CBK044788], for which the viability at 28.5 h, 10 µM came out at 88.2%.
For `CCCOCCCNS(=O)(=O)c1ccc(C(C)(C)CC)cc1` [CBK044821], the viability at 28.5 h, 10 µM worked out at 106%.
Consider `O=S(=O)(c1cccc(F)c1)N1CCC(Cc2ccccc2)CC1` [CBK044828], for which the viability at 28.5 h, 10 µM turned out to be 102%.
For the compound `CCCCN(C)S(=O)(=O)c1ccc(C(C)(C)CC)cc1` [CBK044836], the viability at 28.5 h, 10 µM was found to be 89.9%.
For `CCOC(=O)C1CCCN(S(=O)(=O)c2cc(C)c(Cl)cc2C)C1` (stereo not shown) [CBK044846], the viability at 28.5 h, 10 µM was found to be 108%.
With `N#CCCCCn1cc(NC(=O)NCCc2cccs2)cn1` [CBK044855], the viability at 28.5 h, 10 µM was determined as 100%.
With `CCc1cc(Br)ccc1S(=O)(=O)NCCOc1ccccc1` [CBK044882], the viability at 28.5 h, 10 µM worked out at 88.4%.
For `CCc1cc(Br)ccc1S(=O)(=O)Nc1ccnn1CC` [CBK044900] the value was 92.7%.
Turning to `CCOC(=O)CC(C)NS(=O)(=O)c1ccc(OC(F)(F)F)cc1` (stereo not shown) [CBK044954], the viability at 28.5 h, 10 µM is 104%.
Take `CCN(CCc1ccccn1)S(=O)(=O)c1ccc(OC(F)(F)F)cc1` [CBK044968]: the viability at 28.5 h, 10 µM came out at 92.4%.
As for `CCC(C)(C)c1ccc(S(=O)(=O)NCC2CC2)cc1` [CBK044994], the viability at 28.5 h, 10 µM worked out at 93%.
In the case of `CCc1cc(Br)ccc1S(=O)(=O)Nc1cccc2cccnc12` [CBK045012], the viability at 28.5 h, 10 µM was 87.8%.
As for `CC1(C)COC(=O)N1C1CCN(C(=O)CCS/C=C\c2ccccc2)CC1` [CBK045134], the viability at 28.5 h, 10 µM turned out to be 95.3%.
For the compound `Cc1ccc(C#N)c(NS(=O)(=O)c2cc(C)c(Cl)cc2C)c1` [CBK045250], the viability at 28.5 h, 10 µM was 96.6%.
As for `CC(=O)N(C)c1ccc(NS(=O)(=O)c2cc(C)c(Cl)cc2C)cc1` [CBK045298], the figure is 94.3%; as for `O=S(=O)(Nc1ccc2ncccc2c1)c1ccc(OC(F)(F)F)cc1` [CBK045339], 99.7%; as for `CCN(C)S(=O)(=O)c1ccc(Cl)c(Cl)c1` [CBK045392], 113%.
For `CN(CCC#N)S(=O)(=O)c1ccc(Cl)c(Cl)c1` [CBK045396], the viability at 28.5 h, 10 µM came to 91.8%.
For `O=C(Nc1ccc(F)cc1)c1ccccc1NS(=O)(=O)c1cc(Br)c(Cl)s1` [CBK045405], the viability at 28.5 h, 10 µM came to 92.8%.
For the compound `CCN(CC)C(=O)c1ccccc1NS(=O)(=O)c1ccc(F)cc1` [CBK045414], the viability at 28.5 h, 10 µM stood at 87.7%.
Turning to `CCN(CC)C(=O)c1ccccc1NS(=O)(=O)c1ccc(C)cc1` [CBK045416], the viability at 28.5 h, 10 µM came to 88.7%.
As for `CCN(CC)C(=O)c1ccccc1NS(=O)(=O)c1ccc(OC)c(OC)c1` [CBK045423], the figure is 92.6%; as for `CCN(CC)C(=O)c1ccccc1NS(=O)(=O)c1cc(Br)c(Cl)s1` [CBK045424], 91.3%.
As for `CCN(CC)C(=O)c1ccccc1NS(=O)(=O)Cc1ccccc1[N+](=O)[O-]` [CBK045428], the figure is 99.9%; as for `O=C(Nc1ccc(F)cc1)c1ccccc1NS(=O)(=O)c1ccc(Br)cc1` [CBK045438], 100%; as for `CCOC(=O)c1ccccc1NS(=O)(=O)c1cc(Cl)sc1Cl` [CBK045448], 85.8%.
For `CCOC(=O)c1ccccc1NS(=O)(=O)c1ccc(C)c([N+](=O)[O-])c1` [CBK045451], the viability at 28.5 h, 10 µM was 88.7%.
As to `CCOC(=O)N1CCC(NS(=O)(=O)c2cccc3cccnc23)CC1` [CBK045453], the viability at 28.5 h, 10 µM was determined as 90.6%.
As for `CCOC(=O)N1CCC(NS(=O)(=O)/C=C/c2ccccc2)CC1` [CBK045458], the figure is 107%; as for `CCOC(=O)N1CCC(NS(=O)(=O)c2c(C)noc2C)CC1` [CBK045465], 102%.
Regarding `CCOC(=O)N1CCC(NS(=O)(=O)c2cc(Br)c(Cl)s2)CC1` [CBK045472], the viability at 28.5 h, 10 µM turned out to be 95.8%.
Turning to `CCc1nnc(NS(=O)(=O)c2ccc(NC(=O)c3ccc([N+](=O)[O-])cc3)cc2)s1` [CBK045483], the viability at 28.5 h, 10 µM stood at 95.4%.
As for `CCc1nnc(NS(=O)(=O)c2ccc(NC(=O)c3ccc(Cl)cc3Cl)cc2)s1` [CBK045493], the figure is 88.5%.
For `CCc1nnc(NS(=O)(=O)c2ccc(NC(=O)c3ccccc3[N+](=O)[O-])cc2)s1` [CBK045494] the value was 94.2%; for `Cc1cc(C)c(S(=O)(=O)Nc2nnc(C)s2)c(C)c1` [CBK045497], 87.5%; for `Cc1cc(C)c(S(=O)(=O)Nc2nnc(C(F)(F)F)s2)c(C)c1` [CBK045507], 99.7%.
Regarding `COCc1nnc(NS(=O)(=O)c2ccc(C)cc2)s1` [CBK045523], the viability at 28.5 h, 10 µM is 86.7%.
As for `CS(=O)(=O)Nc1nnc(SCC(=O)Nc2cccc([N+](=O)[O-])c2)s1` [CBK045536], the figure is 102%; as for `Cc1nc(NS(=O)(=O)c2ccc3ccccc3c2)sc1C(=O)O` [CBK045548], 105%; as for `Cc1nc(NS(=O)(=O)Cc2ccccc2)sc1C(=O)O` [CBK045552], 110%.
With `CCCc1ccc(S(=O)(=O)Nc2nc(C)c(C(=O)O)s2)cc1` [CBK045555], the viability at 28.5 h, 10 µM amounted to 88.3%.
Consider `COc1ccc(Br)cc1S(=O)(=O)Nc1nc(C)c(C(=O)O)s1` [CBK045558], for which the viability at 28.5 h, 10 µM worked out at 106%.
Regarding `Cc1nc(NS(=O)(=O)c2cc(Br)c(Cl)s2)sc1C(=O)O` [CBK045560], the viability at 28.5 h, 10 µM was 96%.
Regarding `Cc1nc(NS(=O)(=O)c2c(C)noc2C)sc1C(=O)O` [CBK045562], the viability at 28.5 h, 10 µM was found to be 85.7%.
As for `Cc1nc(NS(=O)(=O)Cc2ccccc2[N+](=O)[O-])sc1C(=O)O` [CBK045564], the viability at 28.5 h, 10 µM was 89.5%.
As for `Cc1nc(NS(=O)(=O)c2ccc(Oc3ccccc3)cc2)sc1C(=O)O` [CBK045566], the viability at 28.5 h, 10 µM is 107%.
As to `O=S(=O)(c1ccccc1C(F)(F)F)n1ccc2c(N3CCNCC3)nccc21` [CBK045605C], the viability at 28.5 h, 10 µM came to 99.5%.
With `COc1cc(C2(O)CCN(Cc3ccccc3)C2)ccc1OCc1ccccc1` (stereo not shown) [CBK045620], the viability at 28.5 h, 10 µM was 95.9%.
Take `CN(C)CCOCc1ncccc1OCCOC1CCCCO1` (stereo not shown) [CBK045662]: the viability at 28.5 h, 10 µM came to 93.1%.
As to `COc1ccc([C@@]23CC[C@@H](NC(=O)N(C)c4ccc(C)cc4)C[C@@H]2N(C)CC3)cc1OC` [CBK045681T], the viability at 28.5 h, 10 µM amounted to 89.2%.
Turning to `COc1ccc([C@@]23CC[C@@H](NC(=O)N(C)c4ccc(Cl)cc4)C[C@@H]2N(C)CC3)cc1OC` [CBK045682T], the viability at 28.5 h, 10 µM was determined as 90.8%.
As to `O=S(=O)(Cc1ccc(Br)cc1)c1cc2c(N3CCNCC3)nccc2s1` [CBK045688C], the viability at 28.5 h, 10 µM came to 87.4%.
With `O=S(=O)(Cc1cccc(F)c1F)c1cc2c(N3CCNCC3)nccc2s1` [CBK045690C], the viability at 28.5 h, 10 µM was found to be 89.1%.
For `COc1ccc([C@@]23CC[C@@H](NC(=O)Nc4ccnc5ccccc45)C[C@@H]2N(C)CC3)cc1OC` [CBK045699] the value was 100%.
In the case of `CCOC(=O)c1cc(-c2cccc(Cl)c2)oc1C` [CBK045775], the viability at 28.5 h, 10 µM stood at 104%.
Take `O=[N+]([O-])c1ccc(N2CCN(Cc3ccccc3)CC2)cc1NCc1ccccc1` [CBK045841]: the viability at 28.5 h, 10 µM amounted to 86.9%.
For `Oc1cccnc1N1CCN(Cc2ccccc2)CC1` [CBK045849] the value was 104%.
For `Cc1cccc(-c2cc(C(=O)O)c(C)o2)c1` [CBK045855], the viability at 28.5 h, 10 µM stood at 87.7%.
`Cc1ccc(C(=O)N2CC(=O)N(CCO)C2)cc1` [CBK045864]: the viability at 28.5 h, 10 µM stood at 110%.
`CCCC(=O)Nc1c(F)cc(F)cc1OC1CCNCC1` [CBK045892T]: the viability at 28.5 h, 10 µM stood at 91.1%.
As to `CC(C(=O)Nc1c(F)cc(F)cc1OC1CCNCC1)c1ccccc1` (stereo not shown) [CBK045896T], the viability at 28.5 h, 10 µM turned out to be 103%.
With `O=C(CCOc1ccccc1)Nc1c(F)cc(F)cc1OC1CCNCC1` [CBK045897T], the viability at 28.5 h, 10 µM came out at 105%.
As for `O=c1c(N2CCN(CCOc3ccccc3)CC2)nccn1CCOc1cc(F)c(F)cc1F` [CBK045934C], the viability at 28.5 h, 10 µM is 103%.
As to `CC(NC(=O)N(Cc1ccc(CN)cc1)Cc1ccc2ccccc2c1)c1cccc2ccccc12` (stereo not shown) [CBK046092C], the viability at 28.5 h, 10 µM was 90%.
Take `NCc1ccc(CN(Cc2ccc(-c3ccccc3)cc2)C(=O)Nc2c(F)cccc2F)cc1` [CBK046115C]: the viability at 28.5 h, 10 µM was determined as 104%.
Take `NCc1ccc(CN(Cc2ccc(-c3ccccc3)cc2)C(=O)Nc2ccccc2C(F)(F)F)cc1` [CBK046116C]: the viability at 28.5 h, 10 µM is 86.3%.
For the compound `CC(NC(=O)N(Cc1ccc(CN)cc1)Cc1cnc(-c2ccccc2)[nH]1)c1cccc2ccccc12` (stereo not shown) [CBK046149C], the viability at 28.5 h, 10 µM was found to be 97.1%.
Consider `NCCN(Cc1cccc(Cl)c1)C(=O)NC(c1ccccc1)c1ccccc1` [CBK046203C], for which the viability at 28.5 h, 10 µM is 90.8%.
Take `Cc1cccc(CN(CCN)C(=O)NC2C[C@H]2c2ccccc2)n1` (stereo partly shown) [CBK046220C]: the viability at 28.5 h, 10 µM came to 120%.
For the compound `Cc1cccc(CN(CCN)C(=O)Nc2ccc(C(C)(C)C)cc2)n1` [CBK046230C], the viability at 28.5 h, 10 µM turned out to be 96.4%.

By viability is commonly meant a read-out of living cells in per cent, often relative to untreated cells.
